Assay results reported in paper PMC9611727, “Optimization of a Novel Mandelamide-Derived Pyrrolopyrimidine Series of PERK Inhibitors” (Pharmaceutics, 2022).

Key:
MAP3K15 = biological target: T1, MAP3K15 (Homo sapiens, UniProt Q6ZN16); experiment: scanMAX kinase panel; type: binding; conditions: read-out: % Control; for remaining binding at 1 µM: 1000 nM
T1 construct: purchased DiscoverX scanMAX
T1 sequence (Q6ZN16 1-1313): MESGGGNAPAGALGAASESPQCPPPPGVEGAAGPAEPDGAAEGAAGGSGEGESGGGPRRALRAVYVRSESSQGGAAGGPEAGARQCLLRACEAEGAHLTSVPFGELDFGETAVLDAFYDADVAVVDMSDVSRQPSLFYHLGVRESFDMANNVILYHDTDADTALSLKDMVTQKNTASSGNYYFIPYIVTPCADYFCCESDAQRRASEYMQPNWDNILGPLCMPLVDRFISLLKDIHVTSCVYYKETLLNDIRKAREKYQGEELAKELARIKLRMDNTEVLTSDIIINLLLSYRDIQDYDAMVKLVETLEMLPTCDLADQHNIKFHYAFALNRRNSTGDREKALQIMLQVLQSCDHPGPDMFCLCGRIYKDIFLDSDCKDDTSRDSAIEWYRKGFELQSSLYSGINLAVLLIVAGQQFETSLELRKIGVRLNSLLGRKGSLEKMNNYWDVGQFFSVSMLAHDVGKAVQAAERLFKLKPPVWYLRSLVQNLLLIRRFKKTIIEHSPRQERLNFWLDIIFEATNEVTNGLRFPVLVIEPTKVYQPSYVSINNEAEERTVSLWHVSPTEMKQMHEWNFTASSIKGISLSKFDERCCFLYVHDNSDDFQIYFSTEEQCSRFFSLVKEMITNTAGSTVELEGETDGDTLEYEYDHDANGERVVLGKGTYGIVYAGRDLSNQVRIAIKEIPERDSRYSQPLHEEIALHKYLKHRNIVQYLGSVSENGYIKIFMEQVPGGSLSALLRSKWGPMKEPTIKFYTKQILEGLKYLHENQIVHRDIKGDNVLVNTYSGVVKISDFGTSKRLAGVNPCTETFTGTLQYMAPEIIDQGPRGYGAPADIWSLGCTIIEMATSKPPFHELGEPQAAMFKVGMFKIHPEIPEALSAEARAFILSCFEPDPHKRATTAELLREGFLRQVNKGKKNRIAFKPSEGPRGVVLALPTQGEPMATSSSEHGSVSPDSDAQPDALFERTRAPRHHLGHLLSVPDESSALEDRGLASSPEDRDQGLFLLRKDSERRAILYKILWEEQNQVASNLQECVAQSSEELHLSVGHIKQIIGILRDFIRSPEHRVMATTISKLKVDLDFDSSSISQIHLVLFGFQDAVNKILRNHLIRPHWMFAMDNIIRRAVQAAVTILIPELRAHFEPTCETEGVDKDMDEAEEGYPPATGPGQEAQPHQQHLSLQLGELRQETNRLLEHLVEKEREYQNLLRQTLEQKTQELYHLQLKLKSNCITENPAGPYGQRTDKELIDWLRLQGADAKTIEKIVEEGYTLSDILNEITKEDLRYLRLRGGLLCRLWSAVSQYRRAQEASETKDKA
Text: (§1) Supplemental Table S2. scanMAXSM Kinome Assay Results. Complete tabulated data of all 468 kinases from the panel, including
(§2) 403 wild-type and 65 mutant isoforms. […] Cmpd 11 and Cmpd 24

NEK1 = biological target: T2, NEK1 (Homo sapiens, UniProt Q96PY6); experiment: scanMAX kinase panel; type: binding; conditions: read-out: % Control; for remaining binding at 1 µM: 1000 nM
T2 construct: purchased DiscoverX scanMAX
T2 sequence (Q96PY6 1-1258): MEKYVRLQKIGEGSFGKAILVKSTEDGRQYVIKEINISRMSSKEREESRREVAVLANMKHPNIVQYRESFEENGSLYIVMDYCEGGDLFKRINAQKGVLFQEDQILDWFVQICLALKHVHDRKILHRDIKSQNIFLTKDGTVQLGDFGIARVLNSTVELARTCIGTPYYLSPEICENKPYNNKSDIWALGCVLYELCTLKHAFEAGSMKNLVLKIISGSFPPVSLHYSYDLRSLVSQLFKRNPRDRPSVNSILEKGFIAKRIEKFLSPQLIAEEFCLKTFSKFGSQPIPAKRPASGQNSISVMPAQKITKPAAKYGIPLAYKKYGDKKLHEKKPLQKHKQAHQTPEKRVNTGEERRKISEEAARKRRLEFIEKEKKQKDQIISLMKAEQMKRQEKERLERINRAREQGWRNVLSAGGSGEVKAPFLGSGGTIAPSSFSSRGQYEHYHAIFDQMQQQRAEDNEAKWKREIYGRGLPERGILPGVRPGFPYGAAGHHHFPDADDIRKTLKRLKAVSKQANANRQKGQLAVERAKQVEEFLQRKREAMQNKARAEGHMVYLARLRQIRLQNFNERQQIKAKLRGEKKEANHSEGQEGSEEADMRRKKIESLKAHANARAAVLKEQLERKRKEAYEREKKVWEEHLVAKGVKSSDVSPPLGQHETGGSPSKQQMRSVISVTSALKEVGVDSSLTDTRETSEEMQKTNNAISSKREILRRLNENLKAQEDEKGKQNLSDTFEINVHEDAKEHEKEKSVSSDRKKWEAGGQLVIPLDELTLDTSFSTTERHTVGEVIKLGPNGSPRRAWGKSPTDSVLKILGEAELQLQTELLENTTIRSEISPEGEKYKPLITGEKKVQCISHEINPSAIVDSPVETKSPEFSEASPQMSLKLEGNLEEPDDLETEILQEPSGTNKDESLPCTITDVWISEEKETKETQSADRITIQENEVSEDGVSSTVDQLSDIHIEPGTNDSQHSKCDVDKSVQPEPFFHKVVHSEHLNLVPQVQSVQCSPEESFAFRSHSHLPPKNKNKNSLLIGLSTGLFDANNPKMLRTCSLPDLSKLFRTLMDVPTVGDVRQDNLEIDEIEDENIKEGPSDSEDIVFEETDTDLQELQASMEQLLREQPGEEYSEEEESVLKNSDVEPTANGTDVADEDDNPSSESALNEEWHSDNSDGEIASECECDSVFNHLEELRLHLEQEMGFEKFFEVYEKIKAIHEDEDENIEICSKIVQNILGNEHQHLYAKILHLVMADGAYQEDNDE
Text: as §1, §2

Compound: Cc1cc(NC(=O)[C@H](O)c2cccc(F)c2)ccc1-c1cn(C)c2ncnc(N)c12 [Compound 11, (R)-N-(4-(4-amino-7-methyl-7H-pyrrolo[2,3-d]pyrimidin-5-yl)-3-methylphenyl)-2-(3-fluorophenyl)-2-hydroxy acetamide]
- remaining binding at 1 µM (MAP3K15): 29%
- remaining binding at 1 µM (NEK1): 2.9%

Compound: Cc1nc(N)c2c(-c3ccc(NC(=O)[C@H](O)c4cccc(F)c4)cc3C)cn(C)c2n1 [Compound 24]
- remaining binding at 1 µM (MAP3K15): 82%
- remaining binding at 1 µM (NEK1): 100%

Compound: Cc1nc(N)c2c(-c3ccc(NC(=O)[C@H](O)c4cccc(C(F)(F)F)c4)cc3C)cn(C)c2n1 [Compound 26]
- remaining binding at 0.1 µM (MAP3K15; 100 nM): 100%
- remaining binding at 1 µM (MAP3K15): 99%
- remaining binding at 0.1 µM (NEK1; 100 nM): 88%
- remaining binding at 1 µM (NEK1): 100%
